The numbers were not newly measured in PubChem BioAssay AID1259409 (Chemical Carcinogenesis Research Information System (CCRIS), 2018), which cites them from elsewhere.

In the series the test system is rodent chemically induced tumor inhibition, incidence and multiplicity. Briefly: CCRIS tumor inhibitor studies. The note with it: Route [Inhibitor]: ORAL.

Take `O=[Se](O)O`: the “tumour outcome (control, treated, inhibition, significance)” value reads like this: (Carcinogen: DIETHYLNITROSAMINE, 55-18-5, Dose [Inhibitor]: 0, 10 MG/L IN DRINKING WATER FOR DURATION OF STUDY BEGINNING 4 D POST CARCINOGEN TREATMENT (STUDY DURATION: 6 MO), Species: RAT, Strain/Sex: BD6/FEMALE, Target Tissue: Type of Lesion: ESOPHAGUS: TUMOR, Dose [Carcinogen]: 80 MG/KG BW 1/WK FOR 9 WK, Promoter: NONE USED) 29%, 18%, 38%, not significant; (Carcinogen: DIETHYLNITROSAMINE, 55-18-5, Dose [Inhibitor]: 0, 10 MG/L IN DRINKING WATER FOR DURATION OF STUDY BEGINNING 7 D PRIOR TO CARCINOGEN TREATMENT (STUDY DURATION: 6 MO), Species: RAT, Strain/Sex: BD6/FEMALE, Target Tissue: Type of Lesion: ESOPHAGUS: TUMOR, Dose [Carcinogen]: 80 MG/KG BW 1/WK FOR 7 WK, Promoter: NONE USED) 25%, 14%, 44%, not significant; (Carcinogen: DIETHYLNITROSAMINE, 55-18-5, Dose [Inhibitor]: 0, 10 MG/L IN DRINKING WATER FOR DURATION OF STUDY BEGINNING 7 D PRIOR TO CARCINOGEN TREATMENT (STUDY DURATION: 6 MO), Species: RAT, Strain/Sex: BD6/FEMALE, Target Tissue: Type of Lesion: LIVER: TUMOR, Dose [Carcinogen]: 80 MG/KG BW 1/WK FOR 7 WK, Promoter: NONE USED) 64%, 31%, 52%, p<0.05; (Carcinogen: DIETHYLNITROSAMINE, 55-18-5, Dose [Inhibitor]: 0, 10 MG/L IN DRINKING WATER FOR DURATION OF STUDY BEGINNING 7 D PRIOR TO FIRST CARCINOGEN DOSE (STUDY DURATION: 6 MO), Species: RAT, Strain/Sex: BD6/FEMALE, Target Tissue: Type of Lesion: ESOPHAGUS: TUMOR, Dose [Carcinogen]: 80 MG/KG BW 1/WK FOR 8 WK, Promoter: NONE USED) 31%, 39%, -26%, not significant; (Carcinogen: DIETHYLNITROSAMINE, 55-18-5, Dose [Inhibitor]: 0, 10 MG/L IN DRINKING WATER FOR DURATION OF STUDY BEGINNING 7 D PRIOR TO FIRST CARCINOGEN DOSE (STUDY DURATION: 6 MO), Species: RAT, Strain/Sex: BD6/FEMALE, Target Tissue: Type of Lesion: ESOPHAGUS: TUMOR, Dose [Carcinogen]: 100 MG/L IN DRINKING WATER FOR 3.5 MO, Promoter: NONE USED) 37%, 25%, 32%, not significant; (Carcinogen: DIETHYLNITROSAMINE, 55-18-5, Dose [Inhibitor]: 0, 10 MG/L IN DRINKING WATER FOR DURATION OF STUDY BEGINNING 7 D PRIOR TO FIRST CARCINOGEN DOSE (STUDY DURATION: 6 MO), Species: RAT, Strain/Sex: BD6/FEMALE, Target Tissue: Type of Lesion: LIVER: TUMOR, Dose [Carcinogen]: 80 MG/KG BW 1/WK FOR 8 WK, Promoter: NONE USED) 94%, 69%, 27%, not significant. The “tumour outcome (control, treated, inhibition, significance)” value is 95%, 94%, 1%, not significant (Carcinogen: DIETHYLNITROSAMINE, 55-18-5, Dose [Inhibitor]: 0, 10 MG/L IN DRINKING WATER FOR DURATION OF STUDY BEGINNING 7 D PRIOR TO FIRST CARCINOGEN DOSE (STUDY DURATION: 6 MO), Species: RAT, Strain/Sex: BD6/FEMALE, Target Tissue: Type of Lesion: LIVER: TUMOR, Dose [Carcinogen]: 100 MG/L IN DRINKING WATER FOR 3.5 MO, Promoter: NONE USED); 85%, 75%, 12%, not significant (Carcinogen: DIETHYNITROSAMINE, 55-18-5, Dose [Inhibitor]: 0, 1 MG/L IN DRINKING WATER FOR DURATION OF STUDY BEGINNING 7 D PRIOR TO FIRST CARCINOGEN DOSE (STUDY DURATION: 6 MO), Species: RAT, Strain/Sex: BD6/FEMALE, Target Tissue: Type of Lesion: LIVER: TUMOR, Dose [Carcinogen]: 80 MG/KG BW 1/WK FOR 8 WK, Promoter: NONE USED); 33/89 (37%), 20/55 (36%), 3%, not calculated (Carcinogen: ETHYLNITROSOUREA, 759-73-9, Dose [Inhibitor]: 0, 4 MG/L TAP DRINKING WATER FOR LIFE (STUDY DURATION: 310 D), Species: RAT, Strain/Sex: ALBINO/MALE,FEMALE, Target Tissue: Type of Lesion: KIDNEY: MESENCHYMAL TUMOR OR ADENOCARCINOMA, Dose [Carcinogen]: 75 MG/KG IN SALINE BY INTRAVENOUS INJECTION ONCE 21 D AFTER CONCEPTION); 55/89 (62%), 32/55 (58%), 6%, not calculated (Carcinogen: ETHYLNITROSOUREA, 759-73-9, Dose [Inhibitor]: 0, 4 MG/L TAP DRINKING WATER FOR LIFE (STUDY DURATION: 310 D), Species: RAT, Strain/Sex: ALBINO/MALE,FEMALE, Target Tissue: Type of Lesion: SPINAL CORD: TUMOR, Dose [Carcinogen]: 75 MG/KG IN SALINE BY INTRAVENOUS INJECTION ONCE 21 D AFTER CONCEPTION); 54/89 (61%), 33/55 (60%), 2%, not calculated (Carcinogen: ETHYLNITROSOUREA, 759-73-9, Dose [Inhibitor]: 0, 4 MG/L TAP DRINKING WATER FOR LIFE (STUDY DURATION: 310 D), Species: RAT, Strain/Sex: ALBINO/MALE/FEMALE, Target Tissue: Type of Lesion: BRAIN: GLIOMA OR ASTROCYTOMA, Dose [Carcinogen]: 75 MG/KG IN SALINE BY INTRAVENOUS INJECTION ONCE 21 D AFTER CONCEPTION); 37/89 (42%), 21/55 (38%), 10%, not calculated (Carcinogen: ETHYLNITROSOUREA, 759-73-9, Dose [Inhibitor]: 0, 4 MG/L TAP DRINKING WATER FOR LIFE (STUDY DURATION: 319 D), Species: RAT, Strain/Sex: ALBINO/MALE,FEMALE, Target Tissue: Type of Lesion: NERVOUS SYSTEM: SCHWANNOMA, Dose [Carcinogen]: 75 MG/KG IN SALINE BY INTRAVENOUS INJECTION ONCE 21 D AFTER CONCEPTION). In addition, the “tumour outcome (control, treated, inhibition, significance)” value runs as follows: (Carcinogen: METHYLAZOXYMETHANOL, 590-96-5, Dose [Inhibitor]: 4 PPM IN DRINKING WATER DAILY FOR 20 WK STARTING SIMULTANEOUSLY WITH CARCINOGEN TREATMENT AND CONTINUING THROUGH END OF, Species: RAT, Strain/Sex: SPRAGUE-DAWLEY/MALE, Target Tissue: Type of Lesion: COLON: ADENOCARCINOMA, Dose [Carcinogen]: 20 MG/KG BW 1/WK FOR 20 WK, Promoter: NONE USED) 14/14 (100%), 14/15 (93%), 7%, not significant; (Carcinogen: METHYLCHOLANTHRENE, 56-49-5, Dose [Inhibitor]: 0, 1 PPM IN DRINKING WATER FOR 13 WK BEGINNING 1 WK PRIOR TO CARCINOGEN TREATMENT (STUDY DURATION: 13 WK), Species: MOUSE, Strain/Sex: SWISS/FEMALE, Target Tissue: Type of Lesion: UTERUS: SQUAMOUS CELL TUMOR, Dose [Carcinogen]: 600 UG IN BEESWAX IMPREGNATED COTTON THREAD INSERTED INTO UTERINE CERVIX CANAL, Promoter: NONE USED) 18/25 (72%), 13/35 (37%), 49%, p<0.05; (Carcinogen: N'-NITROSOBIS(2-OXOPROPYL)AMINE, 60599-38-4, Dose [Inhibitor]: 0.1, 4 PPM (43.5 UG/D) IN DRINKING WATER BEGINNING 8 WK PRIOR TO FIRST CARCINOGEN DOSE AND CONTINUING FOR DURATION OF ST, Species: HAMSTER, Strain/Sex: SYRIAN/FEMALE, Target Tissue: Type of Lesion: PANCREAS: TUMOR, Dose [Carcinogen]: 10 MG/KG IN 0.9% SALINE 1/WK FOR 10 WK, Promoter: NONE USED) 88%, 88%, 0%.
